In US12018021B2 (UCB Biopharma SRL, priority 2018, dated 2024):

These compounds were tested against IgE-Tb / sFcεRIα-Y131A-AF488 (Homo sapiens, UniProt P01854, N146Q/N252Q) (assay: IgE-Tb / sFcεRIα-Y131A-AF488 FRET assay (protocol for examples 234 to 501)). Conditions: examples 234 to 501: compound with IgE-Tb 30 minutes before sFcεRIα-Y131A-AF488, incubated 18 hours at room temperature; read-out: Y131A FRET IC50 range.
Type: binding
Procedure, shortened: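 Compounds (10-point 3-fold series, top usually 10 μM, 2% DMSO) preincubated 30 min with 5 nM IgE-Tb, then 25 nM sFcεRIα-Y131A-AF488 added; 18 h at room temperature in the dark. TR-FRET ratio 520/490 nm after 337 nm excitation, background-subtracted; IC50 by four-parameter logistic fit.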

Sequence of IgE-Tb / sFcεRIα-Y131A-AF488 (P01854 whole entry N146Q/N252Q): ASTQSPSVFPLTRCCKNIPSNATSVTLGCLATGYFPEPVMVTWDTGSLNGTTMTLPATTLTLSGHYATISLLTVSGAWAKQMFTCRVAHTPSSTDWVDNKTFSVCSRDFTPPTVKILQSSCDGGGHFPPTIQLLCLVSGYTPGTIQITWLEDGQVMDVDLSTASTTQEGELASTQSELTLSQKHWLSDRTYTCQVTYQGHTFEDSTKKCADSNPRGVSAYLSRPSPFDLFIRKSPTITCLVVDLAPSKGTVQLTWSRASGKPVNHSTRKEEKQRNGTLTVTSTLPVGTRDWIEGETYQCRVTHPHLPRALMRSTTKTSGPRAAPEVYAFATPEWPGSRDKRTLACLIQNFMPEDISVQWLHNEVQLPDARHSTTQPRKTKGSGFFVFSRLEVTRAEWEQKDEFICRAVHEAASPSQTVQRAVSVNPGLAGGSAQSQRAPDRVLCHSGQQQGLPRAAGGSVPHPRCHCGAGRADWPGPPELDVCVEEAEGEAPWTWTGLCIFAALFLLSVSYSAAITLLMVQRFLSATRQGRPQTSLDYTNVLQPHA

Row | Structure (SMILES) | IC50 [µM]
1 | Cc1nscc1Nc1nncn1[C@H]1CCc2sc(NC(=O)C3CC34CC4)c(C(=O)NCC3CC3)c2C1 (stereo partly drawn) [Example 329, (5S)—N-(cyclopropylmethyl)-5-[3-[(3-methyl-1,2-thiazol-4-yl)amino]-1,2,4-triazol-4-yl]-2-(spiro[2.2]pentane-2-carbonylamino)-4,5,6,7-tetrahydro-1-benzothiophene-3-carboxamide] | < 1
2 | COc1cc(Nc2nncn2[C@H]2CCc3sc(NC(=O)C4CC4)c(C(=O)NCC4CC4)c3C2)n(C)n1 [Example 337, (5S)-2-(cyclopropanecarbonylamino)-N-(cyclopropylmethyl)-5-[3-[(5-methoxy-2-methylpyrazol-3-yl)amino]-1,2,4-triazol-4-yl]-4,5,6,7-tetrahydro-1-benzothiophene-3-carboxamide] | < 1
3 | Cn1nc(OC(F)F)cc1Nc1nncn1[C@H]1CCc2sc(NC(=O)[C@H]3C[C@H](F)C3)c(C(=O)NCC3CC3)c2C1 [Example 343, (5S)—N-(cyclopropylmethyl)-5-[3-[[5-(difluoromethoxy)-2-methylpyrazol-3-yl]amino]-1,2,4-triazol-4-yl]-2-[trans-(3-fluorocyclobutanecarbonyl)amino]-4,5,6,7-tetrahydro-1-benzothiophene-3-carboxamide] | < 1
4 | Cn1nc(OC(F)F)cc1Nc1nncn1[C@H]1CCc2sc(NC(=O)C3CC(F)(F)C3)c(C(=O)NCC3CC3)c2C1 [Example 346, (5S)—N-(cyclopropylmethyl)-2-[(3,3-difluorocyclobutanecarbonyl)amino]-5-[3-[[5-(difluoromethoxy)-2-methylpyrazol-3-yl]amino]-1,2,4-triazol-4-yl]-4,5,6,7-tetrahydro-1-benzothiophene-3-carboxamide] | < 1
5 | Cn1nc(OC(F)F)cc1Nc1nncn1[C@H]1CCc2sc(NC(=O)[C@H]3C[C@@H](F)C3)c(C(=O)NCC3CC3)c2C1 [Example 347, (5S)—N-(cyclopropylmethyl)-5-[3-[[5-(difluoromethoxy)-2-methylpyrazol-3-yl]amino]-1,2,4-triazol-4-yl]-2-[cis-(3-fluorocyclobutanecarbonyl)amino]-4,5,6,7-tetrahydro-1-benzothiophene-3-carboxamide] | < 1
6 | Cn1nc(OC(F)F)cc1Nc1nncn1[C@H]1CCc2sc(NC(=O)C3CC3)c(C(=O)NCC3CC3)c2C1 [Example 351, (5S)-2-(cyclopropanecarbonylamino)-N-(cyclopropylmethyl)-5-[3-[[5-(difluoromethoxy)-2-methylpyrazol-3-yl]amino]-1,2,4-triazol-4-yl]-4,5,6,7-tetrahydro-1-benzothiophene-3-carboxamide] | < 1
7 | C[C@H]1C[C@@H]1C(=O)Nc1sc2c(c1C(=O)NCC1CC1)C[C@@H](n1cnnc1Nc1cc(OC(F)F)nn1C)CC2 [Example 352, (5S)—N-(cyclopropylmethyl)-5-[3-[[5-(difluoromethoxy)-2-methylpyrazol-3-yl]amino]-1,2,4-triazol-4-yl]-2-[[(1S,2S)-2-methylcyclopropanecarbonyl]amino]-4,5,6,7-tetrahydro-1-benzothiophene-3-carboxamide] | < 1
8 | Cn1nc(C(F)F)cc1Nc1nncn1[C@H]1CCc2sc(NC(=O)C3CC(F)C3)c(C(=O)NCC3CC3)c2C1 (stereo partly drawn) [Example 353, (5S)—N-(cyclopropylmethyl)-5-[3-[[5-(difluoromethyl)-2-methylpyrazol-3-yl]amino]-1,2,4-triazol-4-yl]-2-[(3-fluorocyclobutanecarbonyl)amino]-4,5,6,7-tetrahydro-1-benzothiophene-3-carboxamide] | < 1
9 | Cn1nc(C(F)F)cc1Nc1nncn1[C@H]1CCc2sc(NC(=O)[C@H]3C[C@H](F)C3)c(C(=O)NCC3CC3)c2C1 [Example 354, (5S)—N-(cyclopropylmethyl)-5-[3-[[5-(difluoromethyl)-2-methylpyrazol-3-yl]amino]-1,2,4-triazol-4-yl]-2-[trans-(3-fluorocyclobutanecarbonyl)amino]-4,5,6,7-tetrahydro-1-benzothiophene-3-carboxamide] | < 1
10 | Cn1nc(C(F)F)cc1Nc1nncn1[C@H]1CCc2sc(NC(=O)C3COC3)c(C(=O)NCC3CC3)c2C1 [Example 356, N-[(5S)-3-(cyclopropylmethylcarbamoyl)-5-[3-[[5-(difluoromethyl)-2-methylpyrazol-3-yl]amino]-1,2,4-triazol-4-yl]-4,5,6,7-tetrahydro-1-benzothiophen-2-yl]oxetane-3-carboxamide] | < 1
11 | Cn1nc(C(F)F)cc1Nc1nncn1[C@H]1CCc2sc(NC(=O)C3CC(F)(F)C3)c(C(=O)NCC3CC3)c2C1 [Example 357, (5S)—N-(cyclopropylmethyl)-2-[(3,3-difluorocyclobutanecarbonyl)amino]-5-[3-[[5-(difluoromethyl)-2-methylpyrazol-3-yl]amino]-1,2,4-triazol-4-yl]-4,5,6,7-tetrahydro-1-benzothiophene-3-carboxamide] | < 1
12 | Cn1nc(C(F)F)cc1Nc1nncn1[C@H]1CCc2sc(NC(=O)CC(F)F)c(C(=O)NCC3CC3)c2C1 [Example 358, (5S)—N-(cyclopropylmethyl)-5-[3-[[5-(difluoromethyl)-2-methylpyrazol-3-yl]amino]-1,2,4-triazol-4-yl]-2-(3,3-difluoropropanoylamino)-4,5,6,7-tetrahydro-1-benzothiophene-3-carboxamide] | < 1
13 | Cn1nc(C(F)F)cc1Nc1nncn1[C@H]1CCc2sc(NC(=O)C3CCC3)c(C(=O)NCC3CC3)c2C1 [Example 359, (5S)-2-(cyclobutanecarbonylamino)-N-(cyclopropylmethyl)-5-[3-[[5-(difluoromethyl)-2-methylpyrazol-3-yl]amino]-1,2,4-triazol-4-yl]-4,5,6,7-tetrahydro-1-benzothiophene-3-carboxamide] | < 1
14 | CC(C)C(=O)Nc1sc2c(c1C(=O)NCC1CC1)C[C@@H](n1cnnc1Nc1cc(C(F)F)nn1C)CC2 [Example 360, (5S)—N-(cyclopropylmethyl)-5-[3-[[5-(difluoromethyl)-2-methylpyrazol-3-yl]amino]-1,2,4-triazol-4-yl]-2-(2-methylpropanoylamino)-4,5,6,7-tetrahydro-1-benzothiophene-3-carboxamide] | < 1
15 | Cn1nc(C(F)F)cc1Nc1nncn1[C@H]1CCc2sc(NC(=O)[C@H]3C[C@@H]3F)c(C(=O)NCC3CC3)c2C1 [Example 368, (5S)—N-(cyclopropylmethyl)-5-[3-[[5-(difluoromethyl)-2-methyl-pyrazol-3-yl]amino]-1,2,4-triazol-4-yl]-2-[[(1R,2S)-2-fluorocyclopropanecarbonyl]amino]-4,5,6,7-tetrahydrobenzothiophene-3-carboxamide] | < 1
16 | Cn1nc(C(F)F)cc1Nc1nncn1[C@H]1CCc2sc(NC(=O)C3CC3)c(C(=O)N[C@H]3C[C@H](F)C3)c2C1 [Example 373, (5S)-2-(cyclopropanecarbonylamino)-5-[3-[[5-(difluoromethyl)-2-methylpyrazol-3-yl]amino]-1,2,4-triazol-4-yl]-N-(trans-3-fluorocyclobutyl)-4,5,6,7-tetrahydro-1-benzothiophene-3-carboxamide] | < 1
17 | Cn1nc(OC(F)F)cc1Nc1nncn1[C@H]1CCc2sc(NC(=O)[C@H]3C[C@@H]3F)c(C(=O)NC[C@H]3C[C@H]3F)c2C1 [Example 380, (5S)-5-[3-[[5-(difluoromethoxy)-2-methylpyrazol-3-yl]amino]-1,2,4-triazol-4-yl]-2-[[(1R,2S)-2-fluorocyclopropanecarbonyl]amino]-N-[[(1R,2R)-2-fluorocyclopropyl]methyl]-4,5,6,7-tetrahydro-1-benzothiophene-3-carboxamide] | < 1
18 | Cn1nc(C(F)F)cc1Nc1nncn1[C@H]1CCc2sc(NC(=O)C3CC3)c(C(=O)NC3CC(F)(F)C3)c2C1 [Example 387, (5S)-2-(cyclopropanecarbonylamino)-N-(3,3-difluorocyclobutyl)-5-[3-[[5-(difluoromethyl)-2-methylpyrazol-3-yl]amino]-1,2,4-triazol-4-yl]-4,5,6,7-tetrahydro-1-benzothiophene-3-carboxamide] | < 1
19 | Cn1nc(C(F)F)cc1Nc1nncn1[C@H]1CCc2sc(NC(=O)C3CC3)c(C(=O)N[C@H]3C[C@@H](F)C3)c2C1 [Example 388, (5S)-2-(cyclopropanecarbonylamino)-5-[3-[[5-(difluoromethyl)-2-methylpyrazol-3-yl]amino]-1,2,4-triazol-4-yl]-N-(cis-3-fluorocyclobutyl)-4,5,6,7-tetrahydro-1-benzothiophene-3-carboxamide] | < 1
20 | Cn1nc(C(F)F)cc1Nc1nncn1[C@H]1CCc2sc(NC(=O)C3CC3)c(C(=O)NCC3CC(F)(F)C3)c2C1 [Example 389, (5S)-2-(cyclopropanecarbonylamino)-N-[(3,3-difluorocyclobutyl)methyl]-5-[3-[[5-(difluoromethyl)-2-methylpyrazol-3-yl]amino]-1,2,4-triazol-4-yl]-4,5,6,7-tetrahydro-1-benzothiophene-3-carboxamide] | < 1
21 | CC1CC1CNC(=O)c1c(NC(=O)C2CC2F)sc2c1CC(n1cnnc1Nc1cc(C(F)(F)F)nn1C)CC2 [Example 390, (5S)-2-[[(1R,2R)-2-fluorocyclopropanecarbonyl]amino]-N-[[1RS,2RS)-2-methylcyclopropyl]methyl]-5-[3-[[2-methyl-5-(trifluoromethyl)pyrazol-3-yl]amino]-1,2,4-triazol-4-yl]-4,5,6,7-tetrahydro-1-benzothiophene-3-carboxamide (cis)] | < 1
22 | Cn1nc(C(F)(F)F)cc1Nc1nncn1[C@H]1CCc2sc(NC(=O)[C@H]3C[C@H]3F)c(C(=O)NC[C@@H]3C[C@@H]3F)c2C1 [Example 392, (5S)-2-[[(1R,2R)-2-fluorocyclopropanecarbonyl]amino]-N-[[(1S,2S)-2-fluorocyclopropyl]methyl]-5-[3-[[2-methyl-5-(trifluoromethyl)pyrazol-3-yl]amino]-1,2,4-triazol-4-yl]-4,5,6,7-tetrahydro-1-benzothiophene-3-carboxamide] | < 1
